Key:
[1] = tested on: intestinal epithelial cells; details: Non Patent Literature 1, cited from earlier work
human TRPA1 = biological target: T1, human TRPA1 (Homo sapiens, UniProt O75762); assay: TRP channel agonist activity, intracellular Ca2+ imaging, hTRPA1 stably expressing cell line; assay type: cell-based; details: oxylipin compounds 200 μM and 500 μM, AITC 30 μM, Evaluation 5, FIG. 21
T1 construct: expressed in transfected cells
Description: DNA fragments containing nucleotide sequences encoding amino acid sequences of human TRPA1 (Accession No. NM_007332.3) (hereinafter referred to also as hTRPA1), human TRPV1 (Accession No. NM_080704.4) (hereinafter referred to also as hTRPV1) and human TRPM8 (Accession No. NM_024080.5) (hereinafter referred to also as hTRPM8) were inserted into pcDNA5/TO vectors (Invitrogen) to construct an hTRPA1 expression vector, an hTRPV1 expression vector and an hTRPM8 expression vector, respectively.
T-REx™_293 cells (Invitrogen) were cultured in Dulbecco's modified Eagle medium (DMEM, Nacalai Tesque Inc.) containing 10% fetal bovine serum (FBS, Cytiva) up to 60 to 70% confluent growth in the wells of a 6 well plate. T-REx™-293 cells were transfected with an hTRPA1 expression vector, an hTRPV1 expression vector or an hTRPM8 expression vector by use of Lipofectamine LTX (Invitrogen) in accordance with a manual.
To Dulbecco's modified Eagle medium (DMEM, Nacalai Tesque Inc.) containing 10% fetal bovine serum (FBS, Cytiva), hygromycin B and blasticidin S were added so as to have a concentration of […] and 5 μg/ml, respectively. In this manner, a drug selection medium was prepared. Twenty-four hours after completion of transfection, the medium of the above cells was exchanged with the drug selection medium, and thereafter, the cells were cultured for 7 days while exchanging the medium with a fresh medium every two days. Living cells were subcultured and regarded as hTRPA1 stably expressing cell line, hTRPV1 stably expressing cell line and hTRPM8 stably expressing cell line, respectively.
The day before assay, cells of the individual expressing cell lines were removed from the medium with a trypsin/EDTA solution and seeded in the wells of a 96-well black-well plate with a clear bottom so as to obtain a cell density of 5×10^4 cells to 6×10^4 cells/well. At this time, tetracycline was added to the medium so as to obtain a concentration of 1 μg/ml to induce expression of hTRPA1, hTRPV1 or hTRPM8. Culture was carried out in an incubator at 37° C. for 24 hours to 48 hours and then cells were washed with PBS. After PBS was removed from the wells, 50 μl of a calcium fluorescent indicator, Calbryte 520 AM (AAT, Bioquest), which was prepared by dissolving CaCl2 dihydrate, HEPES, BSA in an assay buffer HBSS (−) (solution prepared by adding so as to obtain a final concentration of 1 mM, 20 mM and 0.1%, respectively), so as to obtain a concentration of 4 μM, was added, to the wells and incubated at 33° C. for 45 minutes. Thereafter, the cells were again washed with the assay buffer and then 100 μl was allowed to remain in the wells to prepare cells for assay. A solution of a test substance for evaluating TRP channel agonist activity and having a concentration twice as large as the concentration for measurement was prepared within the wells of the 96-well plate and used within 30 minutes after preparation. The cells to be subjected to assay were incubated at 31° C. and a test substance solution (100 μl) was added to the cells for assay by use of Flaxstation3 (Molecular Devices) and fluorescence intensity (excitation wavelength: 490 nm, fluorescence wavelength: 525 nm) was measured every 2 seconds up to 120 seconds. Thirty seconds after initiation of measurement, the (test substance) solution was added to the cells for assay such that a final concentration of the test substance becomes a concentration for measurement.
TRP channel activation ability of a test substance was calculated as a relative value based on the activation ability of 10 μM ionomycin to each of TRP channels, in accordance with the following calculation formula. […]

[2] = Solubility of isolated oxylipin compounds (physicochemical properties); details: solvents listed for the isolated compound
[3] = in the presence of 1 μM A-967079 (TRPA1 antagonist)

T1 sequence (O75762 whole entry): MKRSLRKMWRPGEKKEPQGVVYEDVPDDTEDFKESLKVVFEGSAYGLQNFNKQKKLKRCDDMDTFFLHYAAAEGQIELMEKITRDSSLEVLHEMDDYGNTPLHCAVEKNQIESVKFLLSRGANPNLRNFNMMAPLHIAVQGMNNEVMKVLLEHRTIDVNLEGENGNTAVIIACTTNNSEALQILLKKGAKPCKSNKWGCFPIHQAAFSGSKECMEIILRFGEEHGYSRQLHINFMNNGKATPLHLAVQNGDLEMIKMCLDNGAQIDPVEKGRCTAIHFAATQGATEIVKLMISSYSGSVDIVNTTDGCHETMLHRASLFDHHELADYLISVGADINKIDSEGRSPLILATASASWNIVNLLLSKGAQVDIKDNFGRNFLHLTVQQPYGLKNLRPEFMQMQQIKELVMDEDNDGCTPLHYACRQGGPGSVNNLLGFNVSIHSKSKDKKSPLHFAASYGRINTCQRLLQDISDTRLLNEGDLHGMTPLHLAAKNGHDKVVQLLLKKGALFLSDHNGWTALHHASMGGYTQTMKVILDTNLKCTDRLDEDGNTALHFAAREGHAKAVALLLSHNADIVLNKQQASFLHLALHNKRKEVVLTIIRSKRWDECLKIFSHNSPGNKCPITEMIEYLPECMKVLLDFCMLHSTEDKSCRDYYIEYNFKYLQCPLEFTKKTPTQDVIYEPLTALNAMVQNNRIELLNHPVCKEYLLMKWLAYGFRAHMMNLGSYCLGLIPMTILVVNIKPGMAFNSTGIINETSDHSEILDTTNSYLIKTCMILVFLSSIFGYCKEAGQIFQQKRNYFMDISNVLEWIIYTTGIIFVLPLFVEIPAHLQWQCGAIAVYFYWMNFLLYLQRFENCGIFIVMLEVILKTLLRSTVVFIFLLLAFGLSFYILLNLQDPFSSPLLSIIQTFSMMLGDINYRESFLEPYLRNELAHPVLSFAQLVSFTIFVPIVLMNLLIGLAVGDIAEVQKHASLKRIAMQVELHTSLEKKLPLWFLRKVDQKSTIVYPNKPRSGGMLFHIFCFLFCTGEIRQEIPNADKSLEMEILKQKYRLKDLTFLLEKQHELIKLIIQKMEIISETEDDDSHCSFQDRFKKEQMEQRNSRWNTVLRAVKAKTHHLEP

Molecule | TRPA1 activation ability (human TRPA1; [3]) | action to promote release of adrenomedullin from the intestinal epithelial cells, with a TRPA1 antagonist ([1]; TRPA1 antagonist added) | release of adrenomedullin from the intestinal epithelial cells [1] | TRPA1 activation ability (human TRPA1; in the absence of A-967079) | Solubility [2]
CCCCC/C=C/C(=O)CCc1ccc(O)c(OC)c1 [Compound 6-shogaol, 6-shogaol] | – | inhibited by a TRPA1 antagonist | have an action to promote release of adrenomedullin from the intestinal epithelial cells | – | –
CC/C=C/CC(O)/C=C/C=C\CCCCCCCC(=O)O (stereo not shown) [Compound R1-2, (9Z,11E,15E)-13-hydroxy-9,11,15-octadecatrienoic acid] | did not show TRPA1 activation ability | – | – | showed TRPA1 activation ability in the absence of A-967079 in a concentration dependent manner | ethanol, methanol, acetonitrile, chloroform
(7Z,13E,15Z)-12-hydroxy-7,13,15-octadecatrienoic acid and (9Z,13E,15Z)-12-hydroxy-9,13,15-octadecatrienoic acid [Compound R2-1] | did not show TRPA1 activation ability | – | – | showed TRPA1 activation ability in the absence of A-967079 in a concentration dependent manner | –

More lines, main results first:

TRPA1 activation ability (human TRPA1; [3]) | Molecule | action to promote release of adrenomedullin from the intestinal epithelial cells, with a TRPA1 antagonist ([1]; TRPA1 antagonist added) | release of adrenomedullin from the intestinal epithelial cells [1] | TRPA1 activation ability (human TRPA1; in the absence of A-967079) | Solubility [2]
did not show TRPA1 activation ability | CCC(O)/C=C/C=C\C/C=C\CCCCCCCC(=O)O (stereo not shown) [Compound R2-2, (9Z,12Z,14E)-16-hydroxy-9,12,14-octadecatrienoic acid] | – | – | showed TRPA1 activation ability in the absence of A-967079 in a concentration dependent manner | ethanol, methanol, acetonitrile, ethyl acetate, chloroform
did not show TRPA1 activation ability | CC/C=C\C/C=C\C=C\C(O)CCCCCCCC(=O)O (stereo not shown) [Compound R3, (10E,12Z,15Z)-9-hydroxy-10,12,15-octadecatrienoic acid] | – | – | showed TRPA1 activation ability in the absence of A-967079 in a concentration dependent manner | ethanol, methanol, acetonitrile, ethyl acetate, chloroform

— US20260144780A1, “COMPOSITION FOR ENHANCING ADRENOMEDULLIN GENE EXPRESSION” (HOUSE WELLNESS FOODS CORPORATION, priority 2020, published 2026)
